The text below walks through data of patent US20040242693A1, “Optically active mandelic acid and its derivative, and method for crystallization thereof” (priority 2001, published 2004).

Holding throughout (assay type): physicochemical
The nature of data set [1]: Measurement of compression rate. Particulars: (volume 1−volume 2)/volume 1. As to the method: Measurement of Compression Rate
An approximately 7-cm^3 chloromandelic acid crystal was passed through a funnel with a diameter of 9 mm, and it was naturally dropped into a 10 ml measuring cylinder from a height of 20 cm, so that the volume of the crystals was measured (volume 1). Thereafter, the crystals in the measuring cylinder were compressed with a glass rod until their volume was not reduced, and the volume after the compression was measured (volume 2). Compression rate was calculated according to the following formula.
Compression rate=(volume 1−volume 2)/volume 1

The nature of data set [2]: Adhesiveness (crystals adhering to test tube wall). Particulars: weight of adhering crystals / weight filled, test tube 16 mm. As to the method: Chloromandelic acid crystals were naturally dropped in a dry test tube having an inside diameter of 16 mm, so that the height of the crystals became approximately 10 cm. Thereafter, the test tube containing chloromandelic acid crystals was slowly inverted, so that the test tube was completely turned upside down and the crystals were dropped. Thereafter, the weight of the test tube was measured, and the weight of chloromandelic acid crystals adhered to the inner wall of the test tube was obtained. The ratio (%) of the weight of the adhering crystals to the weight of the initially filled chloromandelic acid crystals was defined as an index of adhesiveness.

Data set [3] is described as follows: Measurement of particle size distribution (sieving). Particulars: for Particle size distribution 300 to 1,000 μm: sieve fraction 300 to 1,000 μm; for Particle size distribution <300 μm: sieve fraction <300 μm; for Particle size distribution 1,000 μm<: sieve fraction above 1,000 μm. On the procedure:
Measurement of Particle Size Distribution
The crystals were shifted using a microtype electromagnetic vibrating shifter (M-2 type, manufactured by Tsutsui Rikagaku Kikai Co., Ltd.), and their weight was measured, so that their particle size distribution was obtained. 20 g of the crystals was placed on a sieve with a mesh of 1,000 μm, and another sieve with a mesh of 300 μm was placed below the above sieve followed by vibration for 10 minutes.

A short description of data set [4]: Flowability (flow limit diameter through glass funnels). Particulars: minimum funnel inside diameter without blockage in 5 tests, 15 g crystals. On the procedure:
Glass funnels obtained by connecting glass tubes (cylindrical portions) having inside diameters of 4, 5, 6, 8, 9 and 11 mm with the edges of cones with apical angles of 60° were used. The outlet of each funnel (outlet of cylindrical portion) was closed. […] During this process, the funnel should not be shaken, and chloromandelic acid crystals should not be pushed into the funnel by compression. Thereafter, each funnel containing chloromandelic acid crystals was left at rest, the outlet of the cylindrical portion of each funnel was opened, and the crystals were naturally dropped from the outlets. This operation was carried out 5 times, using each of the above described funnels having cylindrical portions with inside diameters of 4, 5, 6, 8, 9 and 11 mm. Flow limit diameter (mm) was defined as a minimum inside diameter capable of naturally dropping the total amount of chloromandelic acid crystals in all of the above 5 tests with no blockage in the funnels. The flow limit diameter was defined as an index of fluidity.

A further data set is described as follows: Appearance of crystals. Particulars: dried crystals. As to the method:
Subsequently, the (R)-2-chloromandelic acid crystals obtained in Examples 1 to 6 and Comparative examples 1 and 2 were measured regarding appearance, water content, filling density, compression rate, and particle size distribution. Each of the above items was measured according to the following methods.

A short description of data set [5]: Measurement of filling (packing) density. Particulars: natural drop into 50 ml measuring cylinder. As to the method:
Measurement of Filling (Packing) Density
10 to 20 g of each of the crystals obtained in the above Examples and Comparative examples was weighed, and it was passed through a funnel with a diameter of 20 mm to naturally drop into a 50 ml measuring cylinder, so that the weight and volume of the crystals were measured and the filling density was calculated.

Data set [6] can be described thus: Measurement of water content (Karl Fischer method). Particulars: for Water content: dried crystals, Karl Fischer. On the procedure:
Measurement of Water Content
Water content was measured by the Karl Fischer method.

`O=C(O)[C@H](O)c1ccccc1Cl` [Example 1, (R)-2-chloromandelic acid] had a Compression rate in data set [1] of 0.03. Moreover, in data set [2], the Adhesion rate worked out at 0.057%. Further, in data set [3], the “Particle size distribution 300 to 1,000 μm” value was 73.5 weight %, the “Particle size distribution <300 μm” value stood at 15.5 weight % and the “Particle size distribution 1,000 μm<” value was 11.0 weight %. This molecule also showed a Flow limit diameter in data set [4] of 5 mm. In addition, the Appearance result in “Appearance of crystals” was “Granular”. Further, in data set [5], the Filling density was determined as 0.65 g/mL. For the same molecule, in data set [6], the Water content is reported as 0.046 wt %.

On to `O=C(O)[C@H](O)c1ccccc1Cl` [Example 2, (R)-2-chloromandelic acid], for which the Compression rate in data set [1] was determined as 0.03. The molecule also registered an Adhesion rate in data set [2] of 0.061%. In data set [3], the “Particle size distribution 300 to 1,000 μm” value is 73.2 weight %, the “Particle size distribution <300 μm” value is 18.2 weight % and the “Particle size distribution 1,000 μm<” value is 8.0 weight %. The molecule also registered a Flow limit diameter in data set [4] of 5 mm. The Appearance entry in “Appearance of crystals” is “Granular”. In addition, the Filling density in data set [5] came out at 0.63 g/mL. In data set [6], the Water content is listed as 0.049 wt %.

As to `O=C(O)[C@H](O)c1ccccc1Cl` [Example 3, (R)-2-chloromandelic acid], in data set [1], the Compression rate was determined as 0.03. In data set [2], this molecule showed an Adhesion rate of 0.058%. For the same molecule, in data set [3], the “Particle size distribution 300 to 1,000 μm” value came to 71.0 weight %, the “Particle size distribution <300 μm” value was found to be 16.6 weight % and the “Particle size distribution 1,000 μm<” value is 12.4 weight %. For the same molecule, the Flow limit diameter in data set [4] is 5 mm. The Appearance result in “Appearance of crystals” is on record as “Granular”. The molecule also registered a Filling density in data set [5] of 0.63 g/mL. In addition, the Water content in data set [6] is 0.058 wt %.

Turning to `O=C(O)[C@H](O)c1ccccc1Cl` [Example 4, (R)-2-chloromandelic acid], the Compression rate in data set [1] is reported as 0.03. Besides, the Adhesion rate in data set [2] was found to be 0.110%. Moreover, in data set [3], the “Particle size distribution 300 to 1,000 μm” value amounted to 72.2 weight %, the “Particle size distribution <300 μm” value worked out at 17.3 weight % and the “Particle size distribution 1,000 μm<” value is reported as 10.5 weight %. For the same molecule, the Flow limit diameter in data set [4] is listed as 5 mm. The Appearance result in “Appearance of crystals” was “Granular”. The Filling density in data set [5] worked out at 0.68 g/mL. The Water content in data set [6] is listed as 0.062 wt %. Besides, in data set [6] (wet product after filtration and washing, before drying), the “Water content of crystal wet product” value is given as 10 % by weight.

In the case of `O=C(O)[C@H](O)c1ccccc1Cl` [Example 5, (R)-2-chloromandelic acid], the Compression rate in data set [1] came to 0.03. Besides, in data set [2], the Adhesion rate came out at 0.130%. Besides, in data set [3], the “Particle size distribution 300 to 1,000 μm” value was determined as 73.1 weight %, the “Particle size distribution <300 μm” value is given as 18.4 weight % and the “Particle size distribution 1,000 μm<” value is on record as 8.5 weight %. Besides, in data set [4], the Flow limit diameter is recorded as 5 mm. Moreover, in the data set “Appearance of crystals”, the Appearance entry is given as “Granular”. In data set [5], this molecule showed a Filling density of 0.68 g/mL. The Water content in data set [6] is given as 0.076 wt %.

Consider `O=C(O)[C@H](O)c1ccccc1Cl` [Example 6, (R)-2-chloromandelic acid], for which the Compression rate in data set [1] is 0.03. In data set [2], the Adhesion rate turned out to be 0.140%. Besides, in data set [3], the “Particle size distribution 300 to 1,000 μm” value is listed as 71.3 weight %, the “Particle size distribution <300 μm” value was determined as 19.0 weight % and the “Particle size distribution 1,000 μm<” value is given as 9.7 weight %. Moreover, the Flow limit diameter in data set [4] came to 5 mm. Also, in “Appearance of crystals”, the Appearance entry is “Granular”. This molecule also gave a Filling density in data set [5] of 0.64 g/mL. Besides, the Water content in data set [6] is recorded as 0.080 wt %.

In data set [1], `O=C(O)[C@H](O)c1ccccc1Cl` [compound 1, (R)-2-chloromandelic acid, reference compound] showed a Compression rate of 0.04. The molecule further had an Adhesion rate in data set [2] of 0.830%. For the same molecule, in data set [3], the “Particle size distribution 300 to 1,000 μm” value is 46.5 weight %, the “Particle size distribution <300 μm” value stood at 46.2 weight % and the “Particle size distribution 1,000 μm<” value is given as 7.3 weight %. The Flow limit diameter in data set [4] is on record as 9 mm. In addition, the Appearance result in the data set “Appearance of crystals” is “Fine”. In data set [5], the Filling density amounted to 0.68 g/mL. In data set [6], this molecule showed a Water content of 0.110 wt %.

On to `O=C(O)[C@H](O)c1ccccc1Cl` [compound 2, (R)-2-chloromandelic acid, reference compound], for which the Compression rate in data set [1] amounted to 0.62. Further, the Adhesion rate in data set [2] stood at 0.500%. Further, in data set [3], the “Particle size distribution 300 to 1,000 μm” value worked out at 71.3 weight %, the “Particle size distribution <300 μm” value is on record as 24.6 weight % and the “Particle size distribution 1,000 μm<” value was 4.1 weight %. In data set [4], this molecule showed a Flow limit diameter of 11 mm. Moreover, the Appearance result in “Appearance of crystals” is reported as “Scale”. The molecule also displayed a Filling density in data set [5] of 0.29 g/mL. This molecule gave a Water content in data set [6] of 0.005 wt %.
